For 24 compounds, IC50 results are on record in patent US20080234262A1 (Wyeth, priority 2007, published 2008).

The structures appear in SMILES notation. Some results are limits rather than exact numbers.

For orientation: IC50 means the concentration that gives 50% inhibition.

One experiment deals with PI3K (Homo sapiens, UniProt P42336). Description: Fluorescence polarization assay for PI3K.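 Also: PI3K kinase reaction on PIP2 with ATP, 30-60 min, product sensed by GST-GRP with red probe in fluorescence polarization (mP), controls without enzyme and at zero time.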 Conditions: PI3Kα; read-out: PI3Kα IC50. Type of experiment: biochemical. Background: Fluorescence polarisation rises when a labelled molecule tumbles more slowly, as on binding a larger partner.
Another experiment has as its system breast line MDA468. As to the kind of experiment: In vitro cell culture growth assay (MTS), MDA468. The settings on record: MDA468 cells, three days after drug treatment. It is filed as cell-based, human. A digest of the protocol:
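Growth measured as percent of same-plate vehicle control by MTS metabolic dye conversion (A490). Breast MDA468 and prostate LNCap cells, plated a day ahead, were exposed to compounds for 3 days.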

A further experiment relates to prostate line LNCap. As to the kind of experiment: In vitro cell culture growth assay (MTS), LNCap.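 Also: viable cell density read by absorbance at 490 nm, growth expressed as percent of vehicle-treated cells on the same plate.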 Type of experiment: cell-based, human. Conditions: LNCap cells, three days after drug treatment.

Chain of PI3K (P42336 whole entry): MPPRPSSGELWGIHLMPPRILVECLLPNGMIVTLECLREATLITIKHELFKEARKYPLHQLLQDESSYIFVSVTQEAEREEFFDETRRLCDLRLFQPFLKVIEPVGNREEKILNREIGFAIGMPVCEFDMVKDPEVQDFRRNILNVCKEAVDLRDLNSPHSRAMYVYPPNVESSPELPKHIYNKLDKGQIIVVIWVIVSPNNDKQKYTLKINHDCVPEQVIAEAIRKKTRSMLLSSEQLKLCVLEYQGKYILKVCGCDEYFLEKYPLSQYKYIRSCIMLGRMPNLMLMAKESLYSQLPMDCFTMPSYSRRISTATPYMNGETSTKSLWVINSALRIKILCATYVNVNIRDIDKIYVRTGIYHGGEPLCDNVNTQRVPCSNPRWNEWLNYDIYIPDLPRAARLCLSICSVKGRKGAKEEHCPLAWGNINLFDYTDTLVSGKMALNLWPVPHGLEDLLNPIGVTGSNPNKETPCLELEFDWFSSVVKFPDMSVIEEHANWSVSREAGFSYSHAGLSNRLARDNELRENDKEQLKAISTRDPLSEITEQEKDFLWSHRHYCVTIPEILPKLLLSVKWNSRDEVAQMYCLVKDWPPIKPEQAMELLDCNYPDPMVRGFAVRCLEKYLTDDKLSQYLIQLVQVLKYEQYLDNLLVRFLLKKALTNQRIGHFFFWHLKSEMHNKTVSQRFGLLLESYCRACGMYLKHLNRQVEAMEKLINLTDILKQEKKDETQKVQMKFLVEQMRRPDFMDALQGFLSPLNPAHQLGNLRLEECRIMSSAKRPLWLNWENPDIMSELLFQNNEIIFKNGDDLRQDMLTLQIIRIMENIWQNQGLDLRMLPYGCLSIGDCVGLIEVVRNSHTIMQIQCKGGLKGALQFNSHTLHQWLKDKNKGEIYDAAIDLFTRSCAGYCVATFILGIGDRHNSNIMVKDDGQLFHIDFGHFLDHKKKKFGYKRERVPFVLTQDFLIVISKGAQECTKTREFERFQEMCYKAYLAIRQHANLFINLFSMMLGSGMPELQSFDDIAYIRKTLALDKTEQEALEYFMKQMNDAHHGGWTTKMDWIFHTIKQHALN
Chain of PI3K (P27986 whole entry partner): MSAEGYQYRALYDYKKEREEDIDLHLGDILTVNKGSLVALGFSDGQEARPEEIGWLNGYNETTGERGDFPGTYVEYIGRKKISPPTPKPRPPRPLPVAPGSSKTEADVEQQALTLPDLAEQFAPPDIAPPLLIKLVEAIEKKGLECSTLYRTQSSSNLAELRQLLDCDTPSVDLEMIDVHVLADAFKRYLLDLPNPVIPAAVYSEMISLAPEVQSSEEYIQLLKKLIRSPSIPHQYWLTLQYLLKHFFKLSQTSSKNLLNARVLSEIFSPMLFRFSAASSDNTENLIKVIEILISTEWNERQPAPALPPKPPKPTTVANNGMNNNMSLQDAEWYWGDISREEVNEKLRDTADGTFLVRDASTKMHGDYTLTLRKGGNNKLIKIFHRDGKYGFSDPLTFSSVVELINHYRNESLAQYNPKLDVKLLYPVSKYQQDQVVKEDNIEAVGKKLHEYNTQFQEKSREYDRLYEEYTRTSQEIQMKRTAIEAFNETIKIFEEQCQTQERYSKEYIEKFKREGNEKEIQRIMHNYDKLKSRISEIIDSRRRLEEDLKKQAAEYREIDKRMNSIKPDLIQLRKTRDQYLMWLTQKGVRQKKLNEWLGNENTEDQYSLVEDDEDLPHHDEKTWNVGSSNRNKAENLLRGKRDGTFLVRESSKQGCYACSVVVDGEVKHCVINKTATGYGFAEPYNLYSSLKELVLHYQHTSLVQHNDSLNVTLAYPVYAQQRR

`CNC(=O)Nc1ccc(-c2nc(N3CCOCC3)c3cnn(C4CCN(Cc5ccccc5Cl)CC4)c3n2)cc1` [Compound 641, 1-(4-{1-[1-(2-chlorobenzyl)piperidin-4-yl]-4-morpholin-4-yl-1H-pyrazolo[3,4-d]pyrimidin-6-yl}phenyl)-3-methylurea]: the IC50 at PI3K turned out to be 35 nM; in the experiment on breast line MDA468, 180 nM; in the experiment with prostate line LNCap, 38 nM.

Take `CNC(=O)Nc1ccc(-c2nc(N3CCOCC3)c3cnn(C4CCN(C(=O)c5cccc(F)c5)CC4)c3n2)cc1` [Compound 603, 1-(4-{1-[1-(3-fluorobenzoyl)piperidin-4-yl]-4-morpholin-4-yl-1H-pyrazolo[3,4-d]pyrimidin-6-yl}phenyl)-3-methylurea]: the IC50 was 88 nM on PI3K; 80 nM in the experiment with breast line MDA468 (Homo sapiens, 72 h); less than 27 nM in the experiment on prostate line LNCap (Homo sapiens, LNCaP, 72 h).

Regarding `CNCC(=O)N1CCC(n2ncc3c(N4CCOCC4)nc(-c4ccc5[nH]ccc5c4)nc32)CC1` [Compound 96], the IC50 on PI3K worked out at 449 nM; with breast line MDA468 (Homo sapiens, 72 h), 2800 nM; in the experiment with prostate line LNCap (Homo sapiens, LNCaP, 72 h), 1300 nM.

On to `O=C(NCCO)Nc1ccc(-c2nc(N3CCOCC3)c3cnn(C4CCN(C(=O)c5cccnc5)CC4)c3n2)cc1` [Example 304, 1-(2-hydroxyethyl)-3-(4-{4-morpholin-4-yl-1-[1-(pyridin-3-ylcarbonyl)piperidin-4-yl]-1H-pyrazolo[3,4-d]pyrimidin-6-yl}phenyl)urea], for which the IC50 is 220 nM on PI3K; 9000 nM in the experiment on breast line MDA468 (Homo sapiens, 72 h); 7500 nM with prostate line LNCap (Homo sapiens, LNCaP, 72 h).

As for `CNC(=O)Nc1ccc(-c2nc(N3CCOCC3)c3cnn(C4CCN(C(=O)N5CCN(C)CC5)CC4)c3n2)cc1` [Example 334, 1-methyl-3-[4-(1-{1-[(4-methylpiperazin-1-yl)carbonyl]piperidin-4-yl}-4-morpholin-4-yl-1H-pyrazolo[3,4-d]pyrimidin-6-yl)phenyl]urea], the IC50 at PI3K turned out to be 71 nM; in the experiment on breast line MDA468 (Homo sapiens, 72 h), 700 nM; in the experiment on prostate line LNCap (Homo sapiens, LNCaP, 72 h), 400 nM.

With `COCCN1CCC(n2ncc3c(N4CCOCC4)nc(-c4ccc5[nH]ccc5c4)nc32)CC1` [Compound 241, 6-(1H-indol-5-yl)-1-[1-(2-methoxyethyl)piperidin-4-yl]-4-morpholin-4-yl-1H-pyrazolo[3,4-d]pyrimidine], the IC50 is 5000 nM at PI3K; 4200 nM with breast line MDA468 (Homo sapiens, 72 h); 2400 nM in the experiment on prostate line LNCap (Homo sapiens, LNCaP, 72 h).

In the case of `CC(C)C(=O)N1CCC(n2ncc3c(N4CCOCC4)nc(-c4ccc(NC(=O)Nc5ccncc5)cc4)nc32)CC1` [Compound 829, 1-{4-[1-(1-isobutyrylpiperidin-4-yl)-4-morpholin-4-yl-1H-pyrazolo[3,4-d]pyrimidin-6-yl]phenyl}-3-pyridin-4-ylurea], the IC50 came to 38 nM on PI3K; 29 nM in the experiment with breast line MDA468 (Homo sapiens, 72 h); 25 nM in the experiment with prostate line LNCap (Homo sapiens, LNCaP, 72 h).

As to `COC(=O)Nc1ccc(-c2nc(N3CCOCC3)c3cnn(C4CCN(C(=O)c5ccccc5OC)CC4)c3n2)cc1` [Example 446, methyl (4-{1-[1-(2-methoxybenzoyl)piperidin-4-yl]-4-morpholin-4-yl-1H-pyrazolo[3,4-d]pyrimidin-6-yl}phenyl)carbamate], the IC50 at PI3K is 888 nM; in the experiment on breast line MDA468 (Homo sapiens, 72 h), 900 nM; in the experiment on prostate line LNCap (Homo sapiens, LNCaP, 72 h) it was 350 nM.

With `CNCCNC(=O)Nc1ccc(-c2nc(N3CCOCC3)c3cnn(C4CCN(C(=O)c5ccccc5)CC4)c3n2)cc1` [Example 386, 1-{4-[1-(1-benzoylpiperidin-4-yl)-4-morpholin-4-yl-1H-pyrazolo[3,4-d]pyrimidin-6-yl]phenyl}-3-[2-(methylamino)ethyl]urea], the IC50 at PI3K was 48 nM; with breast line MDA468 (Homo sapiens, 72 h), 1400 nM; in the experiment with prostate line LNCap (Homo sapiens, LNCaP, 72 h) it was 1200 nM.

Regarding `O=C(Nc1ccncc1)Nc1ccc(-c2nc(N3CCOCC3)c3cnn(C4CCN(Cc5cccnc5)CC4)c3n2)cc1F` [Compound 352, 1-(2-fluoro-4-{4-morpholin-4-yl-1-[1-(pyridin-3-ylmethyl)piperidin-4-yl]-1H-pyrazolo[3,4-d]pyrimidin-6-yl}phenyl)-3-pyridin-4-ylurea], the IC50 at PI3K was found to be 35 nM; with breast line MDA468 (Homo sapiens, 72 h) it was 100 nM; in the experiment on prostate line LNCap (Homo sapiens, LNCaP, 72 h) it was 27 nM.

For the compound `COC(=O)Nc1ccc(-c2nc(N3CCOCC3)c3cnn(C4CCN(C(=O)OC(C)C)CC4)c3n2)cc1` [Compound 806, isopropyl 4-(6-{4-[(methoxycarbonyl)amino]phenyl}-4-morpholin-4-yl-1H-pyrazolo[3,4-d]pyrimidin-1-yl)piperidine-1-carboxylate], the IC50 came out at 4550 nM at PI3K; 900 nM in the experiment on breast line MDA468 (Homo sapiens, 72 h); 700 nM in the experiment with prostate line LNCap (Homo sapiens, LNCaP, 72 h).

For the compound `CNC(=O)Nc1ccc(-c2nc(N3CCOCC3)c3cnn(C4CCN(Cc5cncc(F)c5)CC4)c3n2)cc1` [Example 392, 1-[4-(1-{1-[(5-fluoropyridin-3-yl)methyl]piperidin-4-yl}-4-morpholin-4-yl-1H-pyrazolo[3,4-d]pyrimidin-6-yl)phenyl]-3-methylurea], the IC50 at PI3K amounted to 153 nM; in the experiment on breast line MDA468 (Homo sapiens, 72 h), 600 nM; in the experiment on prostate line LNCap (Homo sapiens, LNCaP, 72 h), 110 nM.

With `CNC(=O)Nc1ccc(-c2nc(N3CCOCC3)c3cnn(C4CCN(C(=O)c5cccc(C(F)(F)F)c5)CC4)c3n2)cc1` [Example 359, 1-methyl-3-[4-(4-morpholin-4-yl-1-{1-[3-(trifluoromethyl)benzoyl]piperidin-4-yl}-1H-pyrazolo[3,4-d]pyrimidin-6-yl)phenyl]urea], the IC50 was 76 nM at PI3K; 200 nM in the experiment on breast line MDA468 (Homo sapiens, 72 h); 45 nM with prostate line LNCap (Homo sapiens, LNCaP, 72 h).

Consider `CNC(=S)Nc1ccc(-c2nc(N3CCOCC3)c3cnn(C4CCN(C(=O)OC)CC4)c3n2)cc1` [Compound 742, methyl 4-[6-(4-{[(methylamino)carbonothioyl]amino}phenyl)-4-morpholin-4-yl-1H-pyrazolo[3,4-d]pyrimidin-1-yl]piperidine-1-carboxylate], for which the IC50 on PI3K worked out at 153 nM; in the experiment on breast line MDA468 (Homo sapiens, 72 h) it was 220 nM; with prostate line LNCap (Homo sapiens, LNCaP, 72 h), 50 nM.

As to `Nc1ccc(-c2nc(N3CCOCC3)c3cnn(C4CCN(Cc5ccccc5)CC4)c3n2)cc1[N+](=O)[O-]` [Compound 183, 4-[1-(1-benzylpiperidin-4-yl)-4-morpholin-4-yl-1H-pyrazolo[3,4-d]pyrimidin-6-yl]-2-nitroaniline], the IC50 on PI3K came to 1170 nM; in the experiment with breast line MDA468 (Homo sapiens, 72 h), 13000 nM; with prostate line LNCap (Homo sapiens, LNCaP, 72 h), 11000 nM.

As for `O=C(Nc1ccc(-c2nc(N3CCOCC3)c3cnn(C4CCN(Cc5ccccc5)CC4)c3n2)cc1)NN1CCCC1` [Compound 537, 1-{4-[1-(1-benzylpiperidin-4-yl)-4-morpholin-4-yl-1H-pyrazolo[3,4-d]pyrimidin-6-yl]phenyl}-3-pyrrolidin-1-ylurea], the IC50 came out at 4230 nM on PI3K; 10000 nM in the experiment with breast line MDA468 (Homo sapiens, 72 h); 3000 nM in the experiment with prostate line LNCap (Homo sapiens, LNCaP, 72 h).

Consider `NC(=O)Nc1cccc(-c2nc(N3CCOCC3)c3cnn(C4CCN(Cc5ccccc5)CC4)c3n2)c1` [Compound 483, N-{3-[1-(1-benzylpiperidin-4-yl)-4-morpholin-4-yl-1H-pyrazolo[3,4-d]pyrimidin-6-yl]phenyl}urea], for which the IC50 on PI3K was determined as 2170 nM; in the experiment with breast line MDA468 (Homo sapiens, 72 h) it was 12000 nM; with prostate line LNCap (Homo sapiens, LNCaP, 72 h), 6800 nM.

With `CC(C)(C)OC(=O)N1CCC(n2ncc3c(N4CCOCC4)nc(-c4ccc(NC(=O)Nc5ccc(CCO)cc5)cc4)nc32)CC1` [Compound 954, tert-butyl 4-{6-[4-({[4-(2-hydroxyethyl)phenyl]carbamoyl}amino)phenyl]-4-morpholin-4-yl-1H-pyrazolo[3,4-d]pyrimidin-1-yl}piperidine-1-carboxylate], the IC50 on PI3K is 10 nM; in the experiment with breast line MDA468 (Homo sapiens, 72 h), 100 nM; in the experiment with prostate line LNCap (Homo sapiens, LNCaP, 72 h), 9 nM.

`CNC(=O)Nc1ccc(-c2nc(N3CCOCC3)c3cnn(C4CCN(Cc5cnccc5OC)CC4)c3n2)cc1` [Example 391, 1-[4-(1-{1-[(4-methoxypyridin-3-yl)methyl]piperidin-4-yl}-4-morpholin-4-yl-1H-pyrazolo[3,4-d]pyrimidin-6-yl)phenyl]-3-methylurea]: the IC50 came to 82 nM at PI3K; 200 nM with breast line MDA468 (Homo sapiens, 72 h); 70 nM in the experiment with prostate line LNCap (Homo sapiens, LNCaP, 72 h).

For the compound `O=C(Nc1ccccc1)Nc1ccc(-c2nc(N3CCOCC3)c3cnn(C4CCNCC4)c3n2)cc1` [Compound 777, 1-[4-(4-morpholin-4-yl-1-piperidin-4-yl-1H-pyrazolo[3,4-d]pyrimidin-6-yl)phenyl]-3-phenylurea], the IC50 on PI3K is 19 nM; in the experiment on breast line MDA468 (Homo sapiens, 72 h), 140 nM; with prostate line LNCap (Homo sapiens, LNCaP, 72 h), 130 nM.

As for `CNC(=O)Nc1ccc(-c2nc(N3CCOCC3)c3cnn(C4CCN(C(=O)c5ccc(C)cc5)CC4)c3n2)cc1` [Compound 613, 1-methyl-3-(4-{1-[1-(4-methylbenzoyl)piperidin-4-yl]-4-morpholin-4-yl-1H-pyrazolo[3,4-d]pyrimidin-6-yl}phenyl)urea], the IC50 on PI3K was 42 nM; in the experiment on breast line MDA468 (Homo sapiens, 72 h), 85 nM; in the experiment with prostate line LNCap (Homo sapiens, LNCaP, 72 h) it was less than 27 nM.

As to `CCOC(=O)Nc1ccc(-c2nc(N3CCOCC3)c3cnn(C4CCN(Cc5ccccc5)CC4)c3n2)cc1` [Compound 207, ethyl {4-[1-(1-benzylpiperidin-4-yl)-4-morpholin-4-yl-1H-pyrazolo[3,4-d]pyrimidin-6-yl]phenyl}carbamate], the IC50 is 659 nM on PI3K; 5200 nM in the experiment on breast line MDA468 (Homo sapiens, 72 h); 3000 nM with prostate line LNCap (Homo sapiens, LNCaP, 72 h).

Consider `O=C(NCC1CC1)Nc1ccc(-c2nc(N3CCOCC3)c3cnn(C4CCN(Cc5ccccc5)CC4)c3n2)cc1` [Example 262, 1-{4-[1-(1-benzylpiperidin-4-yl)-4-morpholin-4-yl-1H-pyrazolo[3,4-d]pyrimidin-6-yl]phenyl}-3-(cyclopropylmethyl)urea], for which the IC50 was 385 nM at PI3K; 3000 nM with breast line MDA468 (Homo sapiens, 72 h); 700 nM with prostate line LNCap (Homo sapiens, LNCaP, 72 h).

For `CNC(=O)Nc1ccc(-c2nc(N3CCOCC3)c3cnn(C4CCN(Cc5cccnc5Cl)CC4)c3n2)cc1` [Compound 635, 1-[4-(1-{1-[(2-chloropyridin-3-yl)methyl]piperidin-4-yl}-4-morpholin-4-yl-1H-pyrazolo[3,4-d]pyrimidin-6-yl)phenyl]-3-methylurea], the results for the IC50 on PI3K, in the experiment on breast line MDA468 and in the experiment on prostate line LNCap were 90 nM, 110 nM and 45 nM, respectively.
